Results on eleven compounds are retold here after US12590093B2, “Indolo[2′,3′:3,4]pyrido[2,1-b]quinazoline compound and use thereof” (INSTITUTE OF MEDICINAL BIOTECHNOLOGY CHINESE ACADEMY OF …, priority 2019, dated 2026).

For one series, the system named is SR-BI. The series can be described thus: SR-BI up-regulation, luciferase reporter in SR-BI-LUC HepG2 cells. The following applies: Homo sapiens, 18 h, maximum up-regulation of luciferase activity versus DMSO, read-out: SR-BI max. It counts as cell-based. As for the experimental part: (§1) Experiments were conducted to detect whether the compounds of the disclosure can pharmacologically up-regulate the expression of ABCA1 and SR-BI. Firstly, ABCA1P-LUC HepG2 cells or SR-BI-LUC HepG2 cells in logarithmic growth phase were digested, diluted in cell culture medium, and counted. Cells were seeded into 96-well plates at a density of 5×10^5/ml (100 μL of the single-cell suspension per well). After cells fully adhered (about 6 h), the medium containing 10% FBS was removed, and the cells were gently washed with PBS. Serum free MEM-EBSS medium (200 μL per test well) and 2 μL of the compounds to be tested (at a final concentration of 10 μg/mL) were added to each test well, and meanwhile, DMSO at a corresponding concentration was added to the control well. After 18-24 h, the medium was removed. Cell Luciferase activity was measured by a method as described in the Luciferase Assay System. By optimizing the final concentration of DMSO, the treatment time of the compounds on the cells and the number of cells seeded into each well during the screening, the final screening conditions were determined as follows: each well is seeded with 5×10^4 cells, DMSO is added at a final concentration of 1%, and the sample is treated for 18 h.
(§2) The ratio of change of luciferase activity is calculated with the following formula: Ratio of change (%)=A/B×100;
(§3) wherein A is the luciferase activity (RLU) measured after the compound to be tested is added, and B is the luciferase activity (RLU) measured after the blank control (DMSO) is added. The luciferase activity of cells in each well was measured, and the dose-effect relationship between the concentration of the compound and the ratio of change of the luciferase activity was determined to calculate the EC50.

The subject of the next series is ABCA1. Put plainly: ABCA1 up-regulation, luciferase reporter in ABCA1P-LUC HepG2 cells. The series is classed as cell-based. The following applies: Homo sapiens, 18 h, maximum up-regulation fold of luciferase activity versus DMSO, read-out: ABCA1 max. The procedure: as §1, §2, §3
In the next series the target is T1, LXRβ (Homo sapiens, UniProt P55055).
T1 construct: expressed in transfected cells; host or cells: HepG2
T1 sequence (P55055 222-460 limits assumed): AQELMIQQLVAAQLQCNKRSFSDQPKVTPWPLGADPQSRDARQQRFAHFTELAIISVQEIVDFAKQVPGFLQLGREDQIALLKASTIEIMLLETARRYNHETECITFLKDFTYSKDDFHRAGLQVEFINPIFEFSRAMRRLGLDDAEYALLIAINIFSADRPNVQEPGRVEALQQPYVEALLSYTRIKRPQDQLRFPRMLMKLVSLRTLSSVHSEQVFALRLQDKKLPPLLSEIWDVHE
Put plainly: Nuclear receptor reporter gene transient transfection (pBIND-hLXRs-LBD) in HepG2 cells, LXRβ. It counts as cell-based. The following applies: for LXRβ max: HepG2 cells, reporter gene, 18-24 h; for LXRβ agonist activity: result in words. The procedure:
(§4) HepG2 cells in logarithmic growth phase were digested, seeded into the white/clear 96-well plate at a density of 5×10^4 cells/well/100 μL until the cells grew to about 90% confluence and in good condition. 0.5 μL liposome (Lipofectamine® 2000) diluted with blank medium to 25 μL per well and incubated at room temperature for 5 min. The corresponding plasmids DNA (nuclear receptor plasmid:Gal4=1:10) were diluted in blank DMEM medium to 25 μL/well (mixing of two plasmids), then mixed evenly with the diluted liposome, and incubated for 20 min at 37° C. The DNA-liposome complex (50 μL per well) was added with the DMEM complete medium (100 μL per well) and mixed thoroughly to obtain a DNA-liposome complex cell culture. The cell medium was discarded, and replaced with the DNA-liposome complex cell culture (150 μL/well) (37° C., 5% CO2). After 6 h, the DNA-liposome complex cell culture medium was discarded, and 200 μL serum-free DMEM medium containing the compound at an appropriate concentration was added to each test well, and cultured for 18-24 h. The cell Luciferase activity was measured by the method as described in the Luciferase Assay System.

The target in a further series is T2, LXRα (Homo sapiens, UniProt Q13133).
T2 construct: expressed in transfected cells; host or cells: HepG2
T2 sequence (Q13133 209-447 limits assumed): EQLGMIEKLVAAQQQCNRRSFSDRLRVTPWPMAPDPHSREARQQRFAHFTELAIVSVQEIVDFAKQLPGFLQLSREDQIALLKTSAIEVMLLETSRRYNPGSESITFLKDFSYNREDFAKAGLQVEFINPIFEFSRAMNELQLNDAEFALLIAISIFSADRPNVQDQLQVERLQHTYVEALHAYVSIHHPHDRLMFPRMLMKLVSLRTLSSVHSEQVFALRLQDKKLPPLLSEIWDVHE
The series can be described thus: Nuclear receptor reporter gene transient transfection (pBIND-hLXRs-LBD) in HepG2 cells, LXRα. It counts as cell-based. The following applies: for LXRα max: HepG2 cells, reporter gene, 18-24 h; for LXRα agonist activity: result in words. As for the experimental part: as §4

For series [1] the following is noted: background statement; cited from earlier work.

`O=c1c2cccnc2nc2n1CCc1c-2[nH]c2c(Cl)cccc12` [TR11, 12-chloro-8,13-dihydropyrido[2″,3″:4′,5′]pyrimido[1′,2′:1,2]pyrido[3,4-b]indol-5(7H)-one]: the maximal fold induction came out at 1.68 with SR-BI and 1.57 with ABCA1.

Consider `O=C1c2ccccc2OC2c3[nH]c4ccccc4c3CCN12` (stereo not shown) [TY4, 7,8,13,13b-tetrahydro-5H-benzo[5′,6′][1,3]oxazino[3′,2′:1,2]pyrido[3,4-13]indol-5-one], for which the maximal fold induction worked out at 1.22 in the series on SR-BI and 1.5 in the series on ABCA1.

Turning to `O=c1c2ccccc2nc2c3[nH]c4ccccc4c3ccn12` [TR4, indolo[2′,3′:3,4]pyrido[2,1-b]quinazolin-5(13H)-one], on LXRβ, the LXRβ max turned out to be 1.88 and the LXRβ agonist activity result is reported as “showed agonist activity”. At LXRα, the LXRα max was determined as 1.84 and the LXRα agonist activity result is on record as “showed agonist activity”. Moreover, the maximal fold induction in the series with SR-BI was found to be 1.74. Also, the maximal fold induction in the series on ABCA1 is 1.84.

As for `c1ccc2c(c1)CN1CCc3c([nH]c4ccccc34)C1N2` (stereo not shown) [TR2, 5,7,8,13,13b,14-hexahydroindolo[2′,3′:3,4]pyrido[2,1-b]quinazoline], the maximal fold induction in the series on SR-BI came out at 1.76; in the series with ABCA1, 1.66.

Turning to `O=c1c2ccccc2cc2n1CCc1c-2[nH]c2ccccc12` [TY3, 8,13-dihydroindolo[2′,3′:3,4]pyrido[1,2-b]isoquinolin-5(7H)-one], the maximal fold induction turned out to be 1.41 in the series on SR-BI and 1.97 in the series with ABCA1.

Turning to `O=C1c2ccccc2N(C(=O)C(F)(F)F)C2c3[nH]c4ccccc4c3CCN12` (stereo not shown) [TR6, 14-(2,2,2-trifluoroacetyl)-8,13,13b,14-tetrahydroindolo[2′,3′:3,4]pyrido[2,1-b]quinazolin-5(7H)-one], at LXRβ, the LXRβ max is on record as 1.69 and the LXRβ agonist activity result is given as “showed agonist activity”. Moreover, at LXRα, the LXRα max was found to be 2.03 and the LXRα agonist activity result is recorded as “showed agonist activity”. The maximal fold induction in the series with SR-BI came out at 1.56. For the same compound, the maximal fold induction with ABCA1 stood at 1.96.

Consider `O=c1c2ccccc2nc2n1CCc1c-2[nH]c2ccccc12` [RUT, Rutaecarpine, reference compound], for which the maximal fold induction stood at 2.12 in the series with SR-BI and 2.09 in the series with ABCA1. The oral bioavailability entry in series [1] is “very low”.

With `O=c1c2cccnc2nc2n1CCc1c-2[nH]c2ccc(Cl)cc12` [TR14, 10-chloro-8,13-dihydropyrido[2″,3″: 4′,5′]pyrimido[1′,2′:1,2]pyrido[3,4-b]indol-5(7H)-one], the maximal fold induction in the series with SR-BI turned out to be 1.57; in the series with ABCA1 it was 1.48.

With `O=c1c2ccccc2nc2n1CCc1c-2[nH]c2c(Cl)cccc12` [TR10, 12-chloro-8,13-dihydroindolo[2′,3′:3,4]pyrido[2,1-b]quinazolin-5(7H)-one], the results for the maximal fold induction in the series with SR-BI and in the series on ABCA1 were 1.72 and 1.43, respectively.

Consider `Cc1cccc2c3c([nH]c12)-c1nc2ncccc2c(=O)n1CC3` [TR12, 12-methyl-8,13-dihydropyrido[2″,3″: 4′,5′]pyrimido[1′,2′:1,2]pyrido[3,4-b]indol-5(7H)-one], for which the maximal fold induction was determined as 1.44 in the series on SR-BI and 1.51 in the series with ABCA1.

In the case of `O=c1c2cccnc2nc2n1CCc1c-2[nH]c2c(F)cccc12` [TR13, 12-fluoro-8,13-dihydropyrido[2″,3″:4′,5′]pyrimido[1′,2′:1,2]pyrido[3,4-b]indol-5(7H)-one], the maximal fold induction in the series on SR-BI is 1.72; in the series on ABCA1 it was 1.54.
